Legend:
JAK3 = biological target: T1, JAK3 (Homo sapiens, UniProt P52333); experiment: Competition binding assay, JAK3
T1 construct: made in house
T1 sequence (P52333 1-1124): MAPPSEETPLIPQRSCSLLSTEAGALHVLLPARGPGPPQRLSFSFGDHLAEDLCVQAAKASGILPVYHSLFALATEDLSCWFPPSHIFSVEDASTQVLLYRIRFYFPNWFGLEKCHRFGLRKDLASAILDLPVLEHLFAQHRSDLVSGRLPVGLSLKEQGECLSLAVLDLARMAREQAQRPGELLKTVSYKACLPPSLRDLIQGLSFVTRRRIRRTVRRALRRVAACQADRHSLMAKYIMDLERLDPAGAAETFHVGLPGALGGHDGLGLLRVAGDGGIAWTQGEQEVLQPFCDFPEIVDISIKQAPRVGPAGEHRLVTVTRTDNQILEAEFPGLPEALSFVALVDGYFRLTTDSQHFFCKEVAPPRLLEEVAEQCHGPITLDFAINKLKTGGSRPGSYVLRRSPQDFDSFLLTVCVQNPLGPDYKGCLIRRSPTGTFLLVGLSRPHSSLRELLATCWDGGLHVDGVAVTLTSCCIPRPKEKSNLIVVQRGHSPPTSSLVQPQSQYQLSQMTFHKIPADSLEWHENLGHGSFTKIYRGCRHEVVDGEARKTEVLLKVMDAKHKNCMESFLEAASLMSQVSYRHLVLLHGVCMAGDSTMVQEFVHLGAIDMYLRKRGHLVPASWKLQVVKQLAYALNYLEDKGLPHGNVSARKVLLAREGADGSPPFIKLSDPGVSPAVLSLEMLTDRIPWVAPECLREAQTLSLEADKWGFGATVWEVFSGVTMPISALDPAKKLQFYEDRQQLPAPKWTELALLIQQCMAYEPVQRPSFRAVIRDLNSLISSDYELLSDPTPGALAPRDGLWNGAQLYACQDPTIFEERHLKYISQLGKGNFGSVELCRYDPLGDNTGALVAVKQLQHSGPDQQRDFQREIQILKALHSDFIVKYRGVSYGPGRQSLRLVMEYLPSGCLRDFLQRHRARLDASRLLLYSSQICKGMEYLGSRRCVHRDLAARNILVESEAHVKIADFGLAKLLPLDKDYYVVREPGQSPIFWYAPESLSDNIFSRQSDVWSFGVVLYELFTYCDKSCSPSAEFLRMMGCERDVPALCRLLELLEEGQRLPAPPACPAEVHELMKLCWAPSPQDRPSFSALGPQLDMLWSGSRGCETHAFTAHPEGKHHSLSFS
Source text: (§1) Competition Binding Assay to Determine Binding Constants (Kd) of the Compounds Against JAK Kinases
(§2) Competition binding assays used herein were developed, validated and performed as described in Fabian et al., Nature Biotechnology 2005, 23,329-336. Kinases were produced as fusions to T7 phage (See, Fabian et al. or WO04/015142) or alternatively, the kinases were expressed in HEK-293 cells and subsequently tagged with DNA for PCR detection (See, WO08/005310). For the binding assays, streptavidin-coated magnetic beads were treated with biotinylated affinity ligands for 30 min at rt to generate affinity resins. The liganded beads were blocked with excess biotin and washed with blocking buffer (SeaBlock (Pierce), 1% BSA, 0.05% Tween 20, 1 mM DTT) to remove unbound ligand and to reduce non-specific binding. Binding reactions were assembled by combining kinase, liganded affinity beads, and test compounds in 1× binding buffer (20% SeaBlock, 0.17×PBS, 0.05% Tween 20, 6 mM DTT). Test compounds were prepared as 100× stocks in DMSO and rapidly diluted into the aqueous environment. DMSO was added to control assays lacking a test compound. Primary screen interactions were performed in polypropylene 384-well plates in a final volume of 34 μL, while Kd determinations were performed in polystyrene 96-well plates in a final volume of 135 μL. The assay plates were incubated at room temperature with shaking for 1 hour, long enough for binding reactions to reach equilibrium, and the affinity beads were washed extensively with wash buffer (1× PBS, 0.05% Tween 20) to remove unbound protein. The beads were then resuspended in elution buffer (1× PBS, 0.05% Tween 20, 2 μM non-biotinylated affinity ligand) and incubated at room temperature with shaking for 30 min. The kinase concentration in the eluates was measured by quantitative PCR. Each kinase was tested individually against each compound. Kds were determined using eleven serial threefold dilutions. A selectivity score, which is a quantitative measure of selectivity of a compound against a panel of enzymes, may be calculated for a compound by dividing the number of enzymes for which a compound meets a set criteria, (for example, a binding constant of 100 nM or less), by the total number of enzymes tested.

[1] = system: GM-CSFR/JAK2/STAT5 pathway in CSTF-1 cells; experiment: CSTF-1 cell-based reporter assay (beta-lactamase, GM-CSF stimulated); design: species or system human; details: Homo sapiens; GM-CSF at 2 ng/mL, 4 hours; read-out: Cell Assay: CS TF-1 reporter assay IC50
Description: CSTF-1 Cell-Based Reporter Assay
CSTF-1 cells are derived from the human erythroleukemia cell line that is growth dependent on GM-CSF and has an intact GM-CSFR/JAK2/STAT5 pathway. The cell line contains stably integrated beta-lactamase reporter gene under the control of the […] (irf 1) response element recognized by the activated transcription factor STATS. csTF-1 cells (Invitrogen K1219) were washed with assay media (97% OPTIMEM/ 0.5% dialyzed FBS/0.1 mM NEAA/1 mM Na pyr/P/S) and seeded in the same media at 5×10^5 cell/mL in T150 flask. After 16 hour incubation, cells were seeded at 2×10^5 cell/well in 50 μl volume, into Costar, clear bottom, 96-well assay plates. Serial dilutions of compounds were added to the plates with final DMSO concentration at 0.5% and GM-CSF at 2 ng/mL and the plates were then incubated at […] and 5% CO2 for 4 hours. The plates were brought to room temperature before adding Substrate Mixture according to manufacturer's protocol (Invitrogen, Catalog #K1085). The assay plates containing the substrate mixture were incubated in the dark at room temperature for 2 hours. Blue and green fluorescence was measured with excitation at 409 nm and emission at 460 nm (for blue) and excitation at 409 nm and emission at 530 nm (for green) using Spectra Max Gemini EM.

TYK2 = biological target: T2, TYK2 (Homo sapiens, UniProt P29597); experiment: Competition binding assay, TYK2
T2 construct: made in house
T2 sequence (P29597 whole entry): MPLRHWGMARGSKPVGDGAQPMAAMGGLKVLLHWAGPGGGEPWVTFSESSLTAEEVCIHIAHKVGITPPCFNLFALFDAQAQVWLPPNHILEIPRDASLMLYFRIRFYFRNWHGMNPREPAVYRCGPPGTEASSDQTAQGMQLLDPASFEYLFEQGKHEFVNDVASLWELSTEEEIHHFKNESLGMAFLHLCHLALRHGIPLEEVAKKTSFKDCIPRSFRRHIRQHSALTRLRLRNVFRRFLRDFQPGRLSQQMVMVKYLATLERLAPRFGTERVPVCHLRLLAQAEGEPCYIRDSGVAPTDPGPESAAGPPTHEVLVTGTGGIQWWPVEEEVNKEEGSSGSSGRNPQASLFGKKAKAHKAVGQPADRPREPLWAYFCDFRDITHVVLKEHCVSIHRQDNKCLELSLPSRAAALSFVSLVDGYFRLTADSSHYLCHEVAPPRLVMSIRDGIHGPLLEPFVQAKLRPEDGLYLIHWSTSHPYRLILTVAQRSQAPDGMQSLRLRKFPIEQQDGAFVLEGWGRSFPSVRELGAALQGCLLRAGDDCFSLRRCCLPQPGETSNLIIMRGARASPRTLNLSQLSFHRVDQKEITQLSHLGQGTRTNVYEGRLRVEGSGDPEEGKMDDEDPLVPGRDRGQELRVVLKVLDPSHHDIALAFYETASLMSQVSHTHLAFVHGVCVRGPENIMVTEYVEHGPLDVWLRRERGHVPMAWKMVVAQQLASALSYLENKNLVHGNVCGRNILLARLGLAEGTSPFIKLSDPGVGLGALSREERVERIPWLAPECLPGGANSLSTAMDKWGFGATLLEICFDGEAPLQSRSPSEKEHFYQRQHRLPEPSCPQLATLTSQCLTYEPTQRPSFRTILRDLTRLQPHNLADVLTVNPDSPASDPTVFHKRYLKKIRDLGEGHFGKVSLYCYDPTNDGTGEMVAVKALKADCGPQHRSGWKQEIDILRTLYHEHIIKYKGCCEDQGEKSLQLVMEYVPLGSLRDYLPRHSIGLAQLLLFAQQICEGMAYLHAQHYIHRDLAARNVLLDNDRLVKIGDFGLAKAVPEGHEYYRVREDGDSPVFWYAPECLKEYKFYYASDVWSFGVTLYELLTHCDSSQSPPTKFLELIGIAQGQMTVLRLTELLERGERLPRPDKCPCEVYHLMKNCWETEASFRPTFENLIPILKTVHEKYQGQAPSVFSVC
Source text: as §1, §2

JAK2 = biological target: T3, JAK2 (Homo sapiens, UniProt O60674); experiment: Competition binding assay, JAK2
T3 construct: made in house
T3 sequence (O60674 whole entry): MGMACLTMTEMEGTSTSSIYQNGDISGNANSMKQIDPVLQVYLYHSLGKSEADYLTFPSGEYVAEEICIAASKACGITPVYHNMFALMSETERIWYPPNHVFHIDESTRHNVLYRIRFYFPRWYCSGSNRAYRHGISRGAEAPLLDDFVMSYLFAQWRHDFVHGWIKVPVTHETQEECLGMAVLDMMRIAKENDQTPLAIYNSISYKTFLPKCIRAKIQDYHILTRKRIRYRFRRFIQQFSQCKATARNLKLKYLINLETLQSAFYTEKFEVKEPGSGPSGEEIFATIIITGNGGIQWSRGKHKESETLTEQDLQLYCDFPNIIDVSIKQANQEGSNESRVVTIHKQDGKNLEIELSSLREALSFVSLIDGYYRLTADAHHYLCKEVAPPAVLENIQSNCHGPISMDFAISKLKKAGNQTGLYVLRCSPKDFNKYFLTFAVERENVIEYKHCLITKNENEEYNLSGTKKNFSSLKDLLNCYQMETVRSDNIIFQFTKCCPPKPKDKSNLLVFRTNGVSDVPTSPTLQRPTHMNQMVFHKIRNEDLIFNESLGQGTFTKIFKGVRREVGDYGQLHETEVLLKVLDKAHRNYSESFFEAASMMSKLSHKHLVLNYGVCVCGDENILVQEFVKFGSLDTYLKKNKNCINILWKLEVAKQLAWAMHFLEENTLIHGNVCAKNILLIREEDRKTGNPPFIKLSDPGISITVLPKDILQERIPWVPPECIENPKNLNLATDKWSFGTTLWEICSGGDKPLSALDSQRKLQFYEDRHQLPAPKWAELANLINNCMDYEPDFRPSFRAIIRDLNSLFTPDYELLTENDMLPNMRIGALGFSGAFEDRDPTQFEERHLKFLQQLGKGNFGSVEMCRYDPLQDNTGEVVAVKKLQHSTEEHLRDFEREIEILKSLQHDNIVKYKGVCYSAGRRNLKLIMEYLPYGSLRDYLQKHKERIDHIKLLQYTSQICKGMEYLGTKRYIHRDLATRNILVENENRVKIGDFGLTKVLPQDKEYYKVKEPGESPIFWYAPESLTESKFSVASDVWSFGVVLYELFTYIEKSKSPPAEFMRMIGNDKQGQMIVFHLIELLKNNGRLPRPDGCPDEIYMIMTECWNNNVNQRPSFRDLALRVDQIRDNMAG
Source text: as §1, §2

[2] = system: distinct kinases tested excluding mutant variants, typically 359 or 386 kinases; experiment: Kinase selectivity score from competition binding panel; details: compound at 10 μM; fraction of kinases with inhibition of 90% or greater
Description: as §2

Compound | Kd (JAK3) [nM] | IC50 [1] [nM] | Kd (TYK2) [nM] | Kd (JAK2) [nM] | S-Score: S(10) at 10 μM [2]
Cc1cc(Nc2nc(C(F)(F)c3ccc(F)cc3)nc3sccc23)n[nH]1 [Example 1, 2-(difluoro(4-fluorophenyl)methyl)-N-(5-methyl-1H-pyrazol-3-yl)thieno[2,3-d]pyrimidin-4-amine] | ≤ 10 | ≤ 100 | ≤ 10 | ≤ 1 | B (0.3 < B ≦ 0.4)
Cc1cc(Nc2nc(C(=O)c3ccc(F)cc3)nc3ccsc23)n[nH]1 [Example 5, (4-fluorophenyl)(4-(5-methyl-1H-pyrazol-3-ylamino)thieno[3,2-d]pyrimidin-2-yl)methanone] | ≤ 10 | ≤ 100 | 10 to 100 | ≤ 1 | A (A ≦ 0.3)
Cc1cc2c(Nc3cc[nH]n3)nc(C(O)c3ccc(F)cc3)nc2s1 (racemic) [Example 17, (R,S)-(4-(1H-pyrazol-3-ylamino)-6-methylthieno[2,3-d]pyrimidin-2-yl)(4-fluorophenyl)methanol] | 10 to 100 | 100 to 500 | > 100 | ≤ 1 | A (A ≦ 0.3)
Cc1cc(Nc2nc(C(F)(F)c3ccc(F)cn3)nc3ccsc23)n[nH]1 [Example 33, 2-(difluoro(5-fluoropyridin-2-yl)methyl)-N-(5-methyl-1H-pyrazol-3-yl)thieno[3,2-d]pyrimidin-4-amine] | ≤ 10 | ≤ 100 | ≤ 10 | ≤ 1 | C (0.4 < C ≦ 0.5)
COC(c1ccc(F)cc1)c1nc(Nc2cc(C)[nH]n2)c2sccc2n1 (stereo not shown) [Example 19, 2-((4-fluorophenyl)(methoxy)methyl)-N-(5-methyl-1H-pyrazol-3-yl)thieno[3,2-d]pyrimidin-4-amine] | 10 to 100 | 100 to 500 | 10 to 100 | 1 to 10 | A (A ≦ 0.3)
Cc1cc2c(Nc3cc[nH]n3)nc(C(F)(F)c3ccc(F)cc3)nc2s1 [Example 15, 2-(difluoro(4-fluorophenyl)methyl)-6-methyl-N-(1H-pyrazol-3-yl)thieno[2,3-d]pyrimidin-4-amine] | 10 to 100 | 100 to 500 | > 100 | 1 to 10 | A (A ≦ 0.3)
Cc1cc(Nc2nc(C(O)c3ccc(F)cc3)nc3cc(C)sc23)n[nH]1 (racemic) [Example 21, (R,S)-(4-fluorophenyl)(6-methyl-4-(5-methyl-1H-pyrazol-3-ylamino)thieno[3,2-d]pyrimidin-2-yl)methanol] | ≤ 10 | ≤ 100 | ≤ 10 | ≤ 1 | B (0.3 < B ≦ 0.4)
Cc1cc(Nc2nc(C(=O)c3ccc(F)cc3)nc3cc(C(C)(C)C)sc23)n[nH]1 [Example 26, (6-tert-butyl-4-(5-methyl-1H-pyrazol-3-ylamino)thieno[3,2-d]pyrimidin-2-yl)(4-fluorophenyl) methanone] | > 100 | 100 to 500 | > 100 | 1 to 10 | A (A ≦ 0.3)

Source: US20130317045A1, “THIENOPYRIDINE AND THIENOPYRIMIDINE COMPOUNDS AND METHODS OF USE THEREOF” (AMBIT BIOSCIENCES CORPORATION, priority 2010, published 2013)
